Experimental findings from PubChem BioAssay (NCI) are described below.

Common to all, as to assay: growth of human tumour cells (NCI), 48 h
The test system of assay [1] is ACHN renal.
In assay [2] the test system is COLO 205 colon.
In assay [3] the test system is NCI-H522 lung.
In assay [4] the test system is OVCAR-3 ovarian.
In assay [5] the test system is OVCAR-4 ovarian.
For assay [6], the system named is SF-268 CNS.
In assay [7] the test system is SK-MEL-2 melanoma.
Assay [8] deals with SK-OV-3 ovarian.
Assay [9] relates to SW-620 colon.
The test system of assay [10] is HCC-2998 colon.

SMILES strings stand for the structures. Several values for one entry are separate records, joined by “and”; a condition that tells them apart may be missing. Identical values can stand only once.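 Growth conditions: 96-well plates. Treatment: test compound, 48 hours, 5 concentrations. Analysis: linear interpolation between bracketing concentrations; unreached endpoints set to highest concentration. GI50: concentration for 50% inhibition of growth. TGI marks complete inhibition of growth.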

As to `COC1CCC(OS(C)(=O)=O)CO1` (configuration not stated), the TGI in assay [1], in assay [2], in [3], in assay [4], in assay [5] and in [6] was more than 100 µM throughout. Also, the TGI in [7] and in [8] was more than 100 µM throughout.
`OC1C=C2C3CN(Cc4cc5c(cc43)OCO5)[C@H]2C[C@@H]1O` (some centres not stated): the TGI was 33.1 µM in [1]; more than 100 µM in assay [2]; more than 100 µM in assay [3]; more than 100 µM in assay [4]; 25.9 µM in [5]; more than 100 µM in [6]. The TGI in [7] was 11.9 µM; in assay [8], more than 100 µM; in [9], more than 100 µM.
Regarding `O=c1c2c([nH]c3nccn13)CCCC2`, the TGI in assay [1], in [2], in assay [10], in assay [3], in assay [4] and in assay [5] was more than 10 µM throughout. In addition, the TGI in assay [6], in [7], in assay [8] and in assay [9] was more than 10 µM each time.
Consider `O=C1c2ccccc2-c2ccc(O)cc21`, for which the TGI is 33.2 µM in [1]; 58.4 µM in assay [2]; 32.9 µM in assay [3]; 44.2 µM in assay [5]; 47.2 µM in assay [6]; 46.5 µM in assay [7]. Also, the TGI in assay [9] is more than 100 µM.
In the case of `S=C(NCCCCCCNC(=S)Nc1c2ccccc2nc2ccccc12)Nc1c2ccccc2nc2ccccc12`, the TGI in [2], in assay [10], in [3], in [4], in assay [5] and in assay [6] was more than 100 µM throughout. In addition, the TGI in [7], in [8] and in assay [9] was more than 100 µM in each case.
`COc1nc(C#CCCCC#N)nc(OC)n1`: the TGI in assay [1] is 21.8 µM; in assay [2], more than 100 µM; in [3] it was 29.4 µM; in [4], 28 µM; in assay [5] it was 17.9 µM; in assay [6], 94.4 µM. Further, the TGI was 32.2 µM in assay [7], more than 100 µM in assay [8] and 32.5 µM in assay [9].
Regarding `COc1ccc(OC)c2sc(N3C(=O)/C(=C/c4ccccc4S)N=C3c3ccccc3)nc12`, the TGI in assay [1], in [2], in assay [10], in assay [4], in assay [5] and in assay [6] was more than 100 µM each time. Besides, the TGI is 78.8 µM in [7], more than 100 µM in [8] and more than 100 µM in assay [9].
Turning to `COC1(OC)C[C@H](C)[C@@]23O[C@]24c2cc(O)c5c(c2N[C@H]3C#C/C=C\C#C[C@]14O)C(=O)c1ccccc1C5=O`, the TGI in assay [2] was 0.0369 µM; in assay [10], 0.0855 µM and 0.0544 µM; in assay [3], 0.0664 µM and 0.0606 µM; in assay [4], 0.77 µM; in assay [5], 4.2 µM; in assay [7], 0.355 µM. Further, the TGI in assay [8] is 0.0217 µM; in assay [9] it was 0.167 µM and 0.215 µM. For the same compound, the GI50 in assay [10] was 0.0197 µM; in [3], 0.0088 µM; in assay [6], 0.00193 µM; in assay [7], 0.359 µM and 0.0593 µM; in assay [9] it was 0.00373 µM.
As for `CC(=O)OCCC[C@@H]1C(=C(C)C)CCC2[C@@]1(C)CC[C@@]1(C)C[C@](C)(CCC=C(C)C)CC[C@]21C` (some centres not stated), the TGI in [1], in [2], in assay [10], in [3], in [4] and in assay [5] was more than 100 µM each time. For the same compound, the TGI in assay [6], in assay [8] and in [9] was more than 100 µM throughout.
As to `CN(C)CCNc1c([N+](=O)[O-])cc2c3c(cccc13)C(=O)N(CCN(C)C)C2=O`, the TGI in assay [2] amounted to 2.71 µM; in [10] it was 2.72 µM; in assay [3] it was 2.79 µM; in assay [4] it was 5.44 µM; in [5] it was 5.84 µM; in [6], 4.6 µM. Moreover, the TGI in [7] amounted to 3.39 µM; in assay [8] it was 7.51 µM; in assay [9], 5.59 µM.
Take `Cc1c2c(cc3c1[nH]c1ccccc13)C(c1ccc(F)cc1)=NCC2`: the TGI in assay [2] amounted to 2.15 µM; in assay [10], 2.8 µM; in assay [3], 3.85 µM; in [4], 2.93 µM; in assay [5], 3.12 µM; in assay [6], 19.6 µM. In addition, the TGI in assay [7] amounted to 3.28 µM; in assay [8] it was 4.45 µM; in assay [9], 5.46 µM.
On to `O=C(NN1C(=O)/C(=C/c2ccc(Cl)cc2)N=C1c1ccccc1)c1c(Cl)c(Cl)c(Cl)c(Cl)c1-c1nc2ccccc2[nH]1`, for which the TGI in assay [1] is 75.3 µM; in [2], more than 100 µM; in assay [10] it was 31.8 µM; in [3], 83.4 µM; in assay [4], more than 100 µM; in assay [6], 62.5 µM. Also, the TGI in assay [7] is 61.7 µM; in assay [8], more than 100 µM; in assay [9] it was more than 100 µM.
Regarding `O=C1OC(c2ccccc2)=N/C1=C/c1cccs1`, the TGI in [1], in [10], in [4], in assay [5], in assay [6] and in assay [7] was more than 100 µM throughout. For the same compound, the TGI in [8] and in [9] was more than 100 µM in each case.
Take `CN1CCN(CCCOc2ccc3ncnc(Nc4ccc(Oc5cccc(C(F)(F)F)c5)c(Cl)c4)c3c2)CC1`: the GI50 was 1.26 µM in assay [1]; 1.55 µM in assay [10]; 1.09 µM in [4]; 1.76 µM in [5]; 1.44 µM in assay [6]; 1.86 µM in [7]. Further, the GI50 in [9] is 1.76 µM. For the same compound, the TGI in assay [1] came out at 2.55 µM; in assay [10], 3.16 µM; in [4], 2.56 µM; in [5], 5.04 µM; in assay [6] it was 3.12 µM; in [7] it was 3.72 µM. In assay [9], this compound registered a TGI of 3.45 µM.
